For eight molecules, carcinogen call results are on record in PubChem BioAssay AID1259411 (Chemical Carcinogenesis Research Information System (CCRIS), 2018).

Activity calls are given as the source filed them. No rule for the calls is given here.

For this data set, the system named is rodent carcinogenicity bioassays, tumor incidence. The data set can be described thus: CCRIS carcinogenicity studies. An outline of the steps:
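NCI-built, expert-reviewed records of carcinogenicity and related test outcomes (mutagenicity, tumor promotion/inhibition) compiled from published and report sources, historical span 1985-2011, not updated.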

`C=O`: the carcinogen call is “inactive; negative” (Species: Hamster, Strain/Sex: Syrian golden/Male (132/Control group; 88/Experimental group), Route: Inhalation, Dose: 10 ppm 5 hr/day, 5 d/wk for life, study duration was lifetime of the animal); “inactive; negative. dose-related non-neoplastic nasal lesions were observed” (Species: Mouse, Strain/Sex: B6C3F1/Female (120/Group with sacrifices at 6, 12 and 24 mo), Route: Inhalation, Dose: 0, 2, 6, 15 ppm 6 hr/d, 5 d/wk for 24 mo, study duration 24 mo, Dose: 0, 2, 6, 15 ppm 6 hr/d, 5 d/wk for 24 mo, study duration 24 mo); “active; positive. dose-related non-neoplastic nasal lesions also observed” (Species: Mouse, Strain/Sex: B6C3F1/Male (120/Group with sacrifices at 6, 12 and 24 mo), Route: Inhalation, Dose: 0, 2, 6, 15 ppm 6 hr/d, 5 d/wk for 24 mo, study duration 24 mo, Dose: 0, 2, 6, 15 ppm 6 hr/d, 5 d/wk for 24 mo, study duration 24 mo, Tumor Site: Type of Lesion: Nasal passages); “active; positive” (Species: RAT, Strain/Sex: F344/FEMALE, Route: INHALATION, Dose: 0, 2, 6, 15 PPM, Dose: 0, 2, 6, 15 PPM, Tumor Site: Type of Lesion: NASAL TURBINATES: SQUAMOUS CELL CARCINOMA); “active; positive” (Species: RAT, Strain/Sex: F344/MALE, Route: INHALATION, Dose: 0, 0.3, 2, 15 PPM 6 HR/D 5 D/WK FOR 28 MO (STUDY DURATION: 28 MO), Dose: 0, 0.3, 2, 15 PPM 6 HR/D 5 D/WK FOR 28 MO (STUDY DURATION: 28 MO), Tumor Site: Type of Lesion: NASAL CAVITY: SQUAMOUS CELL CARCINOMA, SQUAMOUS CELL PAPILLOMA); “active; positive” (Species: RAT, Strain/Sex: F344/MALE, Route: INHALATION, Dose: 0, 2, 6, 15 PPM, Dose: 0, 2, 6, 15 PPM, Tumor Site: Type of Lesion: NASAL TURBINATES: SQUAMOUS CELL CARCINOMA). For the same molecule, the carcinogen call is “active; positive” (Species: RAT, Strain/Sex: SPRAGUE-DAWLEY/FEMALE, Route: ORAL, Dose: 0, 10, 50, 100, 500, 1000, 1500 PPM IN DRINKING WATER FOR 104 WK (STUDY DURATION: LIFETIME), Dose: 0, 10, 50, 100, 500, 1000, 1500 PPM IN DRINKING WATER FOR 104 WK (STUDY DURATION: LIFETIME), Tumor Site: Type of Lesion: LYMPHATIC SYSTEM: LEUKEMIA, GASTROINTESTINAL SYSTEM: TUMOR); “active; positive” (Species: RAT, Strain/Sex: SPRAGUE-DAWLEY/MALE, Route: INHALATION, Dose: 14.2 PPM 6 HR/DAY, 5 DAY/WK, Tumor Site: Type of Lesion: NASAL CAVITY: SQUAMOUS CELL CARCINOMA); “active; positive” (Species: RAT, Strain/Sex: SPRAGUE-DAWLEY/MALE, Route: ORAL, Dose: 0, 10, 50, 100, 500, 1000, 1500 PPM IN DRINKING WATER FOR 104 WK (STUDY DURATION: LIFETIME), Dose: 0, 10, 50, 100, 500, 1000, 1500 PPM IN DRINKING WATER FOR 104 WK (STUDY DURATION: LIFETIME), Tumor Site: Type of Lesion: LYMPHATIC SYSTEM: LEUKEMIA, GASTROINTESTINAL SYSTEM: TUMOR); “inactive; negative” (Species: RAT, Strain/Sex: WISTAR/FEMALE, Route: ORAL, Dose: 0, 1.8, 21 MG/KG IN DRINKING WATER FOR UP TO 24 MO (STUDY DURATION: 105 WK), Dose: 0, 1.8, 21 MG/KG IN DRINKING WATER FOR UP TO 24 MO (STUDY DURATION: 105 WK)); “inactive; negative” (Species: RAT, Strain/Sex: WISTAR/MALE, Route: INHALATION, Dose: 0, 0.1, 1.0, 10 PPM 6HR/D, 5D/WK FOR 3 MO (STUDY DURATION: 29 MO), Dose: 0, 0.1, 1.0, 10 PPM 6HR/D, 5D/WK FOR 3 MO (STUDY DURATION: 29 MO)); “inactive; negative” (Species: RAT, Strain/Sex: WISTAR/MALE, Route: INHALATION, Dose: 0, 0.1, 1.0, 10 PPM 6HR/D, 5D/WK FOR 28 MO (STUDY DURATION: 29 MO), Dose: 0, 0.1, 1.0, 10 PPM 6HR/D, 5D/WK FOR 28 MO (STUDY DURATION: 29 MO)). Also, the carcinogen call (Species: RAT, Strain/Sex: WISTAR/MALE, Route: ORAL, Dose: 0, 1.2, 15 MG/KG IN DRINKING WATER FOR UP TO 24 MO (STUDY DURATION: 105 WK), Dose: 0, 1.2, 15 MG/KG IN DRINKING WATER FOR UP TO 24 MO (STUDY DURATION: 105 WK)) is “inactive; negative”.
In the case of `COc1cc2c(c3ccc4ccccc4c13)CCC2`, the carcinogen call (Species: MOUSE, Strain/Sex: TO/MALE, FEMALE, Route: DERMAL, Dose: 0, 50 UG (10 µL OF A 0.5% W/V TOLUENE SOLUTION) 2/WK FOR 70 WK (STUDY DURATION: 70 WK), Tumor Site: Type of Lesion: SKIN: PAPILLOMA OR CARCINOMA) was “active; positive”.
Regarding `Cc1c[nH]c(=O)[nH]c1=O`, where the note is “Species: RAT, Strain/Sex: F344/MALE, Route: ORAL, Dose: 0, 1, 3% IN DIET FOR 36 WK (STUDY DURATION: 40 WK), Dose: 0, 1, 3% IN DIET FOR 36 WK (STUDY DURATION: 40 WK), Tumor Site: Type of Lesion: BLADDER: PAPILLOMA, CARCINOMA”, the carcinogen call was “active; positive”.
For the molecule `CN1C(C(=O)Nc2ccccn2)=C(O)c2sc(Cl)cc2S1(=O)=O`, the carcinogen call by setting is: (Species: RAT, Strain/Sex: SPRAGUE-DAWLEY/FEMALE, Route: GAVAGE, Dose: 0, 0.0625, 0.125, 0.250 MG/KG BW/D FOR 104 WK, HIGH DOSE REDUCED TO 0.0200 MG/KG FROM STUDY WK 42 TO 50 THEN TO 0.160 MG, Dose: 0, 0.0625, 0.125, 0.250 MG/KG BW/D FOR 104 WK, HIGH DOSE REDUCED TO 0.0200 MG/KG FROM STUDY WK 42 TO 50 THEN TO 0.160 MG) “inactive; negative”; (Species: RAT, Strain/Sex: SPRAGUE-DAWLEY/MALE, Route: GAVAGE, Dose: 0, 0.0625, 0.125, 0.250 MG/KG BW/D FOR 104 WK (STUDY DURATION: 104 WK), Dose: 0, 0.0625, 0.125, 0.250 MG/KG BW/D FOR 104 WK (STUDY DURATION: 104 WK)) “inactive; negative”.
As for `Cc1cc(C)c(N=Nc2c(O)c(S(=O)(=O)O)cc3cc(S(=O)(=O)O)ccc23)cc1C`, where the note is “Species: RAT, Route: ORAL, Tumor Site: Type of Lesion: LIVER”, the carcinogen call was “active; positive”.
`Cc1cc(C)nc(NS(=O)(=O)c2ccc(N)cc2)n1`: the carcinogen call is, setting by setting: (Species: RAT, Strain/Sex: F344/FEMALE, Route: ORAL, TRANS-PLACENTAL, Dose: 0, 10, 40, 600 1200, 2400 PPM IN DIET FOR 24 MO (PARENTS FED 0; 10; 600; 1200; 2400 PPM RESPECTIVELY IN DIET) (STUDY DUR, Dose: 0, 10, 40, 600 1200, 2400 PPM IN DIET FOR 24 MO (PARENTS FED 0; 10; 600; 1200; 2400 PPM RESPECTIVELY IN DIET) (STUDY DUR, Tumor Site: Type of Lesion: THYROID GLAND: FOLLICULAR CELL ADENOCARCINOMA) “active; positive”; (Species: RAT, Strain/Sex: F344/MALE, Route: ORAL, TRANS-PLACENTAL, Dose: 0, 10, 40, 600 1200, 2400 PPM IN DIET FOR 24 MO (PARENTS FED 0; 10; 600; 1200; 2400 PPM RESPECTIVELY IN DIET) (STUDY DUR, Dose: 0, 10, 40, 600 1200, 2400 PPM IN DIET FOR 24 MO (PARENTS FED 0; 10; 600; 1200; 2400 PPM RESPECTIVELY IN DIET) (STUDY DUR, Tumor Site: Type of Lesion: THYROID GLAND: FOLLICULAR CELL ADENOCARCINOMA) “active; positive”.
As for `c1ccc2c(c1)ccc1cc3ccc4c(c3nc12)[C@@H]1O[C@@H]1CC4`, the carcinogen call by setting is: (Species: MOUSE, Strain/Sex: CD-1/FEMALE, Route: INTRAPERITONEAL, Dose: 0, 28 NMOL (TOTAL DOSE) ADMINISTERED AS 1/7 OF DOSE WITHIN 24 HR AFTER BIRTH, 2/7 OF DOSE AT 8 D OLD, 4/7 OF DOSE AT 15) “inactive; negative”; (Species: MOUSE, Strain/Sex: CD-1/MALE, Route: INTRAPERITONEAL, Dose: 0, 28 NMOL (TOTAL DOSE) ADMINISTERED AS 1/7 OF DOSE WITHIN 24 HR AFTER BIRTH, 2/7 OF DOSE AT 8 D OLD, 4/7 OF DOSE AT 15) “inactive; negative”.
On to `CC(=O)O[C@@H]1[C@@H](O)[C@H]2O[C@@H]3C=C(C)C(=O)[C@@H](O)[C@]3(CO)[C@]1(C)[C@]21CO1`, for which the carcinogen call was “inactive; negative” (Species: MOUSE, Strain/Sex: BDF1/FEMALE, Route: GAVAGE, Dose: 0, 3.5 MG/KG 1/4 WK FOR 1 YR (STUDY DURATION: 2 YR)) and “inactive; negative” (Species: MOUSE, Strain/Sex: BDF1/FEMALE, Route: GAVAGE, Dose: 0, 3.5 MG/KG 1/8 WK FOR 1 YR (STUDY DURATION: 2 YR)).
